From patent US9884832B2 (priority 2011, dated 2018)
Read-outs that look alike come from different tables or passages of the source.

What was measured:
[1] = target: AM2 V27A (valine→alanine mutation at residue 27 in the M2 protein) (Influenza A virus, UniProt P0DOF5, V27A); type: cell-based, influenza virus A/Udorn/72
[2] = target: AM2 S31N (serine→asparagine mutation at residue 31 in the M2 protein) (Influenza A virus, UniProt P0DOF5, S31N); type: cell-based, influenza virus A/Udorn/72

COC(=O)C(Cc1cnc[nH]1)NCC12CC3CC(CC(C3)C1)C2 (stereo not shown) [Example 3, 2-[(Adamantan-1-ylmethyl)-amino]-3-(3H-imidazol-4-yl)-propionic acid methyl ester]
V27A OOcyte Inhibition at 100 uM (%) ([1]; pH 5.5): B (key: (A)=31-95%; (B)=0-30%)
S31N OOcyte Inhibition at 100 uM (%) ([2]; pH 5.5): B (key: (A)=31-95%; (B)=0-30%)

C[Si](C)(C)CCCNCc1ccc(O)cc1O [Example 113, 4-[(3-Trimethylsilanyl-propylamino)-methyl]-benzene-1,3-diol]
V27A OOcyte Inhibition at 100 uM (%) ([1]; pH 5.5): B (key: (A)=31-95%; (B)=0-30%)
S31N OOcyte Inhibition at 100 uM (%) ([2]; pH 5.5): B (key: (A)=31-95%; (B)=0-30%)

CC(C)(C)c1cc(CNC23CC4CC(CC(C4)C2)C3)[nH]n1 [Example 101a, N-((3-(tert-butyl)-1H-pyrazol-5-yl)methyl)adamantan-1-amine]
V27A OOcyte Inhibition at 100 uM (%) [1]: B (key: (A)=31-95%; (B)=0-30%)
S31N OOcyte Inhibition at 100 uM (%) [2]: B (key: (A)=31-95%; (B)=0-30%)

c1csc(-c2ccc(CNC3C4CC5CC(C4)CC3C5)s2)c1 (stereo not shown) [Example 205a, N-([2,2′-bithiophen]-5-ylmethyl)adamantan-2-amine]
V27A OOcyte Inhibition at 100 uM (%) [1]: B (key: (A)=31-95%; (B)=0-30%)
S31N OOcyte Inhibition at 100 uM (%) [2]: A (key: (A)=31-95%; (B)=0-30%)

c1cc(-c2ccc(CNC34CC5CC(CC(C5)C3)C4)s2)co1 [Example 137a, N-((5-(Furan-3-yl)thiophen-2-yl)methyl)adamantan-1-amine]
V27A OOcyte Inhibition at 100 uM (%) [1]: B (key: (A)=31-95%; (B)=0-30%)
S31N OOcyte Inhibition at 100 uM (%) [2]: A (key: (A)=31-95%; (B)=0-30%)

c1ccc(Oc2ccc(CNC34CC5CC(CC(C5)C3)C4)cc2)cc1 [Example 13a, Adamantan-1-yl-(4-phenoxy-benzyl)-amine]
V27A OOcyte Inhibition at 100 uM (%) [1]: B (key: (A)=31-95%; (B)=0-30%)
S31N OOcyte Inhibition at 100 uM (%) [2]: A (key: (A)=31-95%; (B)=0-30%)

c1cc(COc2ccc(CNC34CC5CC(CC(C5)C3)C4)cc2)co1 [Example 22, Adamantan-1-yl-[4-(furan-3-ylmethoxy)-benzyl]-amine]
V27A OOcyte Inhibition at 100 uM (%) ([1]; pH 5.5): B (key: (A)=31-95%; (B)=0-30%)
S31N OOcyte Inhibition at 100 uM (%) ([2]; pH 5.5): A (key: (A)=31-95%; (B)=0-30%)

Clc1ccc(COc2ccc(CNC34CC5CC(CC(C5)C3)C4)cc2)cc1 [Example 16a, Adamantan-1-yl-[4-(4-chloro-benzyloxy)-benzyl]-amine]
V27A OOcyte Inhibition at 100 uM (%) [1]: B (key: (A)=31-95%; (B)=0-30%)
S31N OOcyte Inhibition at 100 uM (%) [2]: A (key: (A)=31-95%; (B)=0-30%)

Clc1ccc(CNC23CC4CC(CC(C4)C2)C3)s1 [Example 79a, N-((5-chlorothiophen-2-yl)methyl)adamantan-1-amine]
V27A OOcyte Inhibition at 100 uM (%) [1]: B (key: (A)=31-95%; (B)=0-30%)
S31N OOcyte Inhibition at 100 uM (%) [2]: A (key: (A)=31-95%; (B)=0-30%)

CC1(C)C2CCC(CNCc3ccc(O)cc3O)C1C2 (stereo not shown) [Example 114, 4-{[(6,6-Dimethyl-bicyclo[3.1.1]hept-2-ylmethyl)-amino]methyl}-benzene-1,3-diol]
V27A OOcyte Inhibition at 100 uM (%) ([1]; pH 5.5): B (key: (A)=31-95%; (B)=0-30%)
S31N OOcyte Inhibition at 100 uM (%) ([2]; pH 5.5): B (key: (A)=31-95%; (B)=0-30%)

NC(=O)c1ccc(CNC23CC4CC(CC(C4)C2)C3)cc1 [Example 18, 4-(Adamantan-1-ylaminomethyl)-benzamide]
V27A OOcyte Inhibition at 100 uM (%) ([1]; pH 5.5): B (key: (A)=31-95%; (B)=0-30%)
S31N OOcyte Inhibition at 100 uM (%) ([2]; pH 5.5): B (key: (A)=31-95%; (B)=0-30%)

Oc1ccc2[nH]c(CNC34CC5CC(CC(C5)C3)C4)cc2c1 [Example 179a]
V27A OOcyte Inhibition at 100 uM (%) [1]: B (key: (A)=31-95%; (B)=0-30%)
S31N OOcyte Inhibition at 100 uM (%) [2]: B (key: (A)=31-95%; (B)=0-30%)

Cn1cc(C(F)(F)F)c(-c2ccc(CNC34CC5CC(CC(C5)C3)C4)s2)n1 [Example 155a, N-((5-(1-methyl-4-(trifluoromethyl)-1H-pyrazol-3-yl)thiophen-2-yl)methyl)adamantan-1-amine]
V27A OOcyte Inhibition at 100 uM (%) [1]: B (key: (A)=31-95%; (B)=0-30%)
S31N OOcyte Inhibition at 100 uM (%) [2]: B (key: (A)=31-95%; (B)=0-30%)

Oc1ccc(CN2CC3CC4CC(C3)CC2C4)c(O)c1 [Example 116, 4-(4-Aza-tricyclo[4.3.1.13,8]undec-4-ylmethyl)-benzene-1,3-diol]
V27A OOcyte Inhibition at 100 uM (%) ([1]; pH 5.5): A (key: (A)=31-95%; (B)=0-30%)
S31N OOcyte Inhibition at 100 uM (%) ([2]; pH 5.5): B (key: (A)=31-95%; (B)=0-30%)

Brc1nc(CNC23CC4CC(CC(C4)C2)C3)cs1 [Example 83a, N-((2-bromothiazol-4-yl)methyl)adamantan-1-amine]
V27A OOcyte Inhibition at 100 uM (%) [1]: B (key: (A)=31-95%; (B)=0-30%)
S31N OOcyte Inhibition at 100 uM (%) [2]: A (key: (A)=31-95%; (B)=0-30%)

CC(NC1C2CC3CC(C2)CC1C3)c1ccc(O)cc1O (stereo not shown) [Example 102, 4-[1-(Adamantan-2-ylamino)-ethyl]-benzene-1,3-diol]
V27A OOcyte Inhibition at 100 uM (%) ([1]; pH 5.5): A (key: (A)=31-95%; (B)=0-30%)
S31N OOcyte Inhibition at 100 uM (%) ([2]; pH 5.5): B (key: (A)=31-95%; (B)=0-30%)

c1csc(CNC23CC4CC(CC(C4)C2)C3)n1 [Example 71a, Adamantan-1-yl-thiazol-2-ylmethyl-amine]
V27A OOcyte Inhibition at 100 uM (%) [1]: B (key: (A)=31-95%; (B)=0-30%)
S31N OOcyte Inhibition at 100 uM (%) [2]: A (key: (A)=31-95%; (B)=0-30%)

c1cc(-c2nnn[nH]2)ccc1CNC12CC3CC(CC(C3)C1)C2 [Example 15, Adamantan-1-yl-[4-(1H-tetrazol-5-yl)-benzyl]amine]
V27A OOcyte Inhibition at 100 uM (%) ([1]; pH 5.5): B (key: (A)=31-95%; (B)=0-30%)
S31N OOcyte Inhibition at 100 uM (%) ([2]; pH 5.5): B (key: (A)=31-95%; (B)=0-30%)

Oc1ccc(CNC23CC4CC(CC(C4)C2)C3)cc1Cl [Example 47, 4-(Adamantan-1-ylaminomethyl)-2-chloro-phenol]
V27A OOcyte Inhibition at 100 uM (%) ([1]; pH 5.5): A (key: (A)=31-95%; (B)=0-30%)
S31N OOcyte Inhibition at 100 uM (%) ([2]; pH 5.5): B (key: (A)=31-95%; (B)=0-30%)

CN(CCC#N)c1ccc(CNC23CC4CC(CC(C4)C2)C3)cc1 [Example 38, 3-((4-((Adamantan-1-ylamino)methyl)phenyl)(methyl)amino)propanenitrile]
V27A OOcyte Inhibition at 100 uM (%) ([1]; pH 5.5): B (key: (A)=31-95%; (B)=0-30%)
S31N OOcyte Inhibition at 100 uM (%) ([2]; pH 5.5): A (key: (A)=31-95%; (B)=0-30%)

OC12CC3CC(C1)CC(NCc1cccs1)(C3)C2 [Example 187a, 3-[(Thiophen-2-ylmethyl)-amino]adamantan-1-ol]
V27A OOcyte Inhibition at 100 uM (%) [1]: B (key: (A)=31-95%; (B)=0-30%)
S31N OOcyte Inhibition at 100 uM (%) [2]: A (key: (A)=31-95%; (B)=0-30%)

c1ccc2cc(COc3ccc(CNC45CC6CC(CC(C6)C4)C5)cc3)ccc2c1 [Example 38a, N-(4-(naphthalen-2-ylmethoxy)benzyl)adamantan-1-amine]
V27A OOcyte Inhibition at 100 uM (%) [1]: B (key: (A)=31-95%; (B)=0-30%)
S31N OOcyte Inhibition at 100 uM (%) [2]: B (key: (A)=31-95%; (B)=0-30%)

c1cc(CNC23CC4CC(CC(C4)C2)C3)c2cc[nH]c2c1 [Example 96, Adamantan-1-yl-(1H-indol-4-ylmethyl)-amine]
V27A OOcyte Inhibition at 100 uM (%) ([1]; pH 5.5): A (key: (A)=31-95%; (B)=0-30%)
S31N OOcyte Inhibition at 100 uM (%) ([2]; pH 5.5): B (key: (A)=31-95%; (B)=0-30%)

Fc1ccc(CNC23CC4CC(CC(C4)C2)C3)cc1 [Example 27, Adamantan-1-yl-(4-fluoro-benzyl)-amine]
V27A OOcyte Inhibition at 100 uM (%) ([1]; pH 5.5): B (key: (A)=31-95%; (B)=0-30%)
S31N OOcyte Inhibition at 100 uM (%) ([2]; pH 5.5): B (key: (A)=31-95%; (B)=0-30%)

c1cc(-c2ccc(CNC34CC5CC(CC(C5)C3)C4)s2)[nH]n1 [Example 158a, N-((5-(1H-pyrazol-5-yl)thiophen-2-yl)methyl)adamantan-1-amine]
V27A OOcyte Inhibition at 100 uM (%) [1]: A (key: (A)=31-95%; (B)=0-30%)
S31N OOcyte Inhibition at 100 uM (%) [2]: A (key: (A)=31-95%; (B)=0-30%)

Oc1cccc2ccc(CNC34CC5CC(CC(C5)C3)C4)nc12 [Example 65a, 2-((adamantan-1-ylamino)methyl)quinolin-8-ol]
V27A OOcyte Inhibition at 100 uM (%) [1]: B (key: (A)=31-95%; (B)=0-30%)
S31N OOcyte Inhibition at 100 uM (%) [2]: B (key: (A)=31-95%; (B)=0-30%)

O=c1ccc2cc(CNC34CC5CC(CC(C5)C3)C4)ccc2o1 [Example 42a, 6-((adamantan-1-ylamino)methyl)-2H-chromen-2-one]
V27A OOcyte Inhibition at 100 uM (%) [1]: B (key: (A)=31-95%; (B)=0-30%)
S31N OOcyte Inhibition at 100 uM (%) [2]: B (key: (A)=31-95%; (B)=0-30%)

Oc1ccc(CNC2C3CC4CC(C3)CC2C4)cc1 (stereo not shown) [Example 99, 4-(Adamantan-2-ylaminomethyl)-phenol]
V27A OOcyte Inhibition at 100 uM (%) ([1]; pH 5.5): B (key: (A)=31-95%; (B)=0-30%)
S31N OOcyte Inhibition at 100 uM (%) ([2]; pH 5.5): B (key: (A)=31-95%; (B)=0-30%)

c1csc(-c2ccc(CNC34CC5CC(CC(C5)C3)C4)cc2)c1 [Example 29a, N-(4-(Thiophen-2-yl)benzyl)adamantan-1-amine methanesulfonate]
V27A OOcyte Inhibition at 100 uM (%) [1]: B (key: (A)=31-95%; (B)=0-30%)
S31N OOcyte Inhibition at 100 uM (%) [2]: A (key: (A)=31-95%; (B)=0-30%)

c1ccc2[nH]c(CNC34CC5CC(CC(C5)C3)C4)cc2c1 [Example 93, Adamantan-1-yl-(1H-indol-2-ylmethyl)-amine]
V27A OOcyte Inhibition at 100 uM (%) ([1]; pH 5.5): B (key: (A)=31-95%; (B)=0-30%)
S31N OOcyte Inhibition at 100 uM (%) ([2]; pH 5.5): A (key: (A)=31-95%; (B)=0-30%)

c1ccc2nc(CNC34CC5CC(CC(C5)C3)C4)ccc2c1 [Example 98, Adamantan-1-yl-quinolin-2-ylmethyl-amine]
V27A OOcyte Inhibition at 100 uM (%) ([1]; pH 5.5): B (key: (A)=31-95%; (B)=0-30%)
S31N OOcyte Inhibition at 100 uM (%) ([2]; pH 5.5): A (key: (A)=31-95%; (B)=0-30%)

Oc1ccc(CNC23CC4CC(CC(C4)C2)C3)c(Cl)c1 [Example 58, 4-(Adamantan-1-ylaminomethyl)-3-chloro-phenol]
V27A OOcyte Inhibition at 100 uM (%) ([1]; pH 5.5): A (key: (A)=31-95%; (B)=0-30%)
S31N OOcyte Inhibition at 100 uM (%) ([2]; pH 5.5): B (key: (A)=31-95%; (B)=0-30%)

c1ccc(CNC23CC4CC(CC(C4)C2)C3)cc1 [Example 8, Adamantan-1-yl-benzyl-amine]
V27A OOcyte Inhibition at 100 uM (%) ([1]; pH 5.5): B (key: (A)=31-95%; (B)=0-30%)
S31N OOcyte Inhibition at 100 uM (%) ([2]; pH 5.5): B (key: (A)=31-95%; (B)=0-30%)

C[Si](C)(C)c1ccc(CNC23CC4CC(CC(C4)C2)C3)cc1 [Example 6a, Adamantan-1-yl-(4-trimethylsilanyl-benzyl)-amine]
V27A OOcyte Inhibition at 100 uM (%) [1]: B (key: (A)=31-95%; (B)=0-30%)
S31N OOcyte Inhibition at 100 uM (%) [2]: A (key: (A)=31-95%; (B)=0-30%)

O=[N+]([O-])c1ccc(CNC23CC4CC(CC(C4)C2)C3)s1 [Example 100a, N-((5-nitrothiophen-2-yl)methyl)adamantan-1-amine]
V27A OOcyte Inhibition at 100 uM (%) [1]: A (key: (A)=31-95%; (B)=0-30%)
S31N OOcyte Inhibition at 100 uM (%) [2]: B (key: (A)=31-95%; (B)=0-30%)
